Here are results for two compounds from US20030104473A1, “Common ligand mimics: benzimidazoles” (priority 2001, published 2003).

The target in assay [1] is T1, HMG CoA reductase (HMGCoAR) (UniProt P04035).
T1 sequence (P04035 1-888): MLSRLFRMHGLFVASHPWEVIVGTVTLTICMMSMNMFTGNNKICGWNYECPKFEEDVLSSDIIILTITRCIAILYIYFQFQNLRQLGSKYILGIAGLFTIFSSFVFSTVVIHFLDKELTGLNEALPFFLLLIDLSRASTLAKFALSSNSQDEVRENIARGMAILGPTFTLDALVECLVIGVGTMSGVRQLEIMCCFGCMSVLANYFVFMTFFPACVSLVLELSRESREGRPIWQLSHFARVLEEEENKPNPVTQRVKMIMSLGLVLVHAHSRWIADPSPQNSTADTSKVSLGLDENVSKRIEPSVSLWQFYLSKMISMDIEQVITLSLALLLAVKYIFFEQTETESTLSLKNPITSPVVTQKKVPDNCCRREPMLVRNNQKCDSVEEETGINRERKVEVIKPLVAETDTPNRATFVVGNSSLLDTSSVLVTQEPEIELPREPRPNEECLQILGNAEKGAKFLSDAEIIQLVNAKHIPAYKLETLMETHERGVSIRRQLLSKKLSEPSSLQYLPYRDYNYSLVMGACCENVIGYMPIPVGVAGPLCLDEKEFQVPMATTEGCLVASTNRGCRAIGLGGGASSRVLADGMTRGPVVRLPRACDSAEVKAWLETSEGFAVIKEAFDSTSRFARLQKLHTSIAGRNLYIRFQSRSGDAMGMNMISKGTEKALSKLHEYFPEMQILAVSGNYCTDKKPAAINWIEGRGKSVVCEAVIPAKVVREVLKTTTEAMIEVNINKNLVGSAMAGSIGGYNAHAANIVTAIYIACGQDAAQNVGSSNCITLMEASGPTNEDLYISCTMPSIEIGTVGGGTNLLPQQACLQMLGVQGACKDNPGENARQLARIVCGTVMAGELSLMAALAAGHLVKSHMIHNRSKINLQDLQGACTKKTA
Nature of the assay: HMGCoAR kinetic assay, spectrophotometric oxidation of NADPH at 340 nm. The class given is biochemical. To be noted: Example 13 oxidoreductase panel (FIG. 7). How it is done:
For HMGCoAR analysis, the compounds were screened using a kinetic protocol that spectrophotometrically evaluates oxidation of NADPH.
Stock solutions of each of the reagents were prepared in the following concentrations. Dilutions of the stock solutions were prepared prior to running the assay in the concentrations indicated below. The enzyme was diluted in 1 M NaCl. To prepare the dilution buffer, 10 μl of HMGCoAR (1 mg/ml) was mixed with 133 μl of 3 M NaCl solution and 257 μl of 25 mM KH2PO4 buffer (pH 7.5; containing 50 mM NaCl, […] EDTA (ethylenediaminetetraacetic acid), and 5 mM DTT (dithiothreitol).
The HMGCoAR reaction was monitored at 340 nm prior to and after addition of the inhibitor to detect background reaction with the inhibitor. Solutions of 100 μM of the inhibitors in DMSO were prepared to provide a final DMSO concentration of 2% of the total assay volume. These solutions were incubated for 6 minutes at 25° C. in a 994 μl of a solution containing 25 mM KH2PO4, pH 7.5, 160 μM HMGCoA, 13 μM NADPH, 50 mM NaCl, 1 mM EDTA, and 5 mM DTT. The reaction was then initiated with 5 μl of HMGCoAR enzyme (1:40 dilution of 0.65 mg/ml). After the enzyme was added, the solution was mixed for 20 seconds, and the reaction was run for 10 minutes. After a 50 second lag, the samples were read in a Cary spectrophotometer at 340 nm. Reading of the samples was continued until 300 seconds. […]

In assay [2] the target is T2, lactate dehydrogenase (LDH) (Oryctolagus cuniculus, UniProt P13491).
T2 construct: 10 μl of LDH from Rabbit Muscle; from tissue; host or cells: rabbit muscle
The experiment in a line: LDH kinetic assay, spectrophotometric oxidation of NADH at 340 nm. It counts as biochemical, Rabbit Muscle. To be noted: Example 13 oxidoreductase panel (FIG. 7). How it is done:
For LDH analysis, the compounds were screened using a kinetic protocol that spectrophotometrically evaluates oxidation of NADH.
Stock solutions of each of the reagents were prepared in the following concentrations. Dilutions of the stock solutions were prepared prior to running the assay in the concentrations indicated below.
The LDH reaction was monitored at 340 nm prior to and after addition of the inhibitor to detect background reaction with the inhibitor. Solutions of 100 μl of the inhibitors in DMSO were prepared to provide a final DMSO concentration of 5% of the total assay volume. These solutions were incubated for 6 minutes at 25° C. in a 990 μl of a solution containing 0.1 M HEPES, pH 7.4, 10 μM NADH, and 2.5 mM of pyruvate. The reaction was then initiated with 10 μl of LDH from Rabbit Muscle (0.5 μg/ml; 1:2000 dilution of 1.0 mg/ml). After the enzyme was added, the solution was mixed for 20 seconds, and the reaction was run for 10 minutes. After a 50 second lag, the samples were read in a Cary spectrophotometer at 340 nm. Reading of the samples was continued until 300 seconds. Cuvette #1 contained the control reaction (no inhibitor), and cuvette #2 contained the positive control reaction in which Cibacron Blue at 10.3 μM was substituted for inhibitor to yield 50 to 70% inhibition. The substrate was kept at a level at least 10 times the Km.

SMILES strings stand for the structures.

In the case of `O=C(O)c1ccc(-c2ccc(-c3nc4ccccc4[nH]3)o2)cc1` [compound 6b, 4-[5-(1H-benzoimidazol-2-yl)-furan-2-yl] benzoic acid], in assay [1], the IC50 was 22 µM.

On to `O=C(O)c1ccc(-c2ccc(-c3nc4cc([N+](=O)[O-])ccc4[nH]3)o2)cc1` [compound 6d, 4-[5-(5-nitro-1H-benzoimidazol-2-yl)-furan-2-yl]-benzoic acid], for which the IC50 in assay [2] turned out to be 4.56 µM.

Broadly, the IC50 is the concentration that inhibits the measured activity by half. High values mean a need for much substance, low ones inhibition by little substance.
